{"source": "patent US6620850B2", "about": "“Materials and methods for treatment of neurological disorders involving overactivation of glutamatergic ionotropic receptors” (University of Florida, priority 2001, dated 2003)", "key": {"cocaine dependence": {"tested_on": "cocaine dependence", "conditions": "orally administered, patients; cited from earlier work"}, "Parkinson's disease": {"tested_on": "Parkinson's disease", "conditions": "oral administration, patients; cited from earlier work"}, "[1]": {"tested_on": "GluR-mediated miniature excitatory postsynaptic currents (mEPSCs) in hippocampal neurons", "test": "mEPSCs in cultured rat hippocampal neurons, whole-cell patch clamp (normoxia)", "assay_type": "cell-based", "conditions": "for effect on GluR-mediated mEPSCs: cultured hippocampal neurons, normoxia, in presence of MK-801"}, "[2]": {"conditions": "versus 55-60 μM in healthy patients; cited from earlier work"}}}
{"smiles": "N[C@@H](Cc1ccc(O)cc1)C(=O)O", "note": "[tyrosine]", "values": [{"measurement": "clinical benefit in cocaine dependence", "setting": "cocaine dependence", "result": "did not confer a benefit"}]}
{"smiles": "N[C@H](Cc1ccccc1)C(=O)O", "note": "[D-phenylalanine]", "values": [{"measurement": "clinical benefit in Parkinson's disease", "setting": "Parkinson's disease", "result": "conferred some benefit"}]}
{"smiles": "N[C@@H](Cc1c[nH]c2ccccc12)C(=O)O", "note": "[L-Trp, L-Tryptophan]", "values": [{"measurement": "effect on GluR-mediated mEPSCs", "setting": "[1]", "result": "significantly and reversibly attenuate"}]}
{"smiles": "N[C@@H](Cc1ccccc1)C(=O)O", "note": "[L-Phe, L-phenylalanine]", "values": [{"measurement": "effect on frequency of mEPSCs (concentration-dependence)", "setting": "[1]; L-Phe 0.1-3 mM, normalized to control, 5 to 8 cells, P<0.01 compared to control", "result": "concentration-dependence of attenuation of the frequency of mEPSCs"}, {"measurement": "effect on GluR-mediated mEPSCs", "setting": "[1]", "result": "significantly and reversibly attenuate"}, {"measurement": "blood concentration of L-Phe causing phenylketonuria (PKU)", "setting": "[2]", "result": "> 1200", "unit": "µM"}]}
{"smiles": "N[C@@H](Cc1ccc(O)cc1)C(=O)O", "note": "[L-Tyr, L-tyrosine]", "values": [{"measurement": "effect on GluR-mediated mEPSCs", "setting": "[1]", "result": "significantly and reversibly attenuate"}]}
